These results are taken from patent US7205298B2, “Substituted triazine kinase inhibitors” (Janssen Pharmaceutica N.V., priority 2002, dated 2007).

The target in assay [1] is T1, Casein Kinase 2 (Homo sapiens, UniProt P68400).
T1 construct: purchased New England Biolabs 6010; host or cells: E. coli
Briefly: Kinase selectivity assay Casein Kinase 2. The format is biochemical. The method, then:
(§1) Assays to test compound inhibition of other kinases were preformed using methods that measure the amount of phosphorylation of a biotinylated peptide substrate. Biotinylated peptide substrates were selected from the literature as appropriate for the enzyme being evaluated. The general procedure used to assay for kinase activity is as follows: a kinase reaction mix was prepared in 50 mM Tris-HCl pH=8, 10 mM MgCl2, 0.1 mM Na3VO4, 1 mM DTT, 10 μM ATP, 0.25–1 μM biotinylated peptide substrate, 0.2–0.8 μCuries per well ^33P-γ-ATP (2000–3000 Ci/mmol). Assay conditions vary slightly for each protein kinase, for example, insulin receptor kinase requires 10 mM MnCl2 for activity and Calmodulin-dependent protein kinase requires calmodulin and 2 mM CaCl2. The reaction mixture was dispensed into the wells of a streptavidin coated Flashplate and 1 μL test compound in 100% DMSO was added to a 100 μL reaction volume resulting in a final concentration of 1% DMSO in the reaction. Enzyme was diluted in 50 mM Tris-HCl pH=8.0, 0.1% BSA and added to each well. The reaction was incubated for one hour at 30° C. in the presence of a test compound. […] The plate was read on a scintillation counter to determine ^33P-γ-ATP incorporated into the immobilized peptide substrate. […] A maximum and minimum signal for the assay was determined on each plate. […]

Assay [2] deals with GSK-3 (beta isoform) (Oryctolagus cuniculus, UniProt G1T8E2). Briefly: Kinase selectivity assay GSK-3. The class given is biochemical, rabbit. The protocol: as §1
Chain of GSK-3 (beta isoform) (G1T8E2 1-432): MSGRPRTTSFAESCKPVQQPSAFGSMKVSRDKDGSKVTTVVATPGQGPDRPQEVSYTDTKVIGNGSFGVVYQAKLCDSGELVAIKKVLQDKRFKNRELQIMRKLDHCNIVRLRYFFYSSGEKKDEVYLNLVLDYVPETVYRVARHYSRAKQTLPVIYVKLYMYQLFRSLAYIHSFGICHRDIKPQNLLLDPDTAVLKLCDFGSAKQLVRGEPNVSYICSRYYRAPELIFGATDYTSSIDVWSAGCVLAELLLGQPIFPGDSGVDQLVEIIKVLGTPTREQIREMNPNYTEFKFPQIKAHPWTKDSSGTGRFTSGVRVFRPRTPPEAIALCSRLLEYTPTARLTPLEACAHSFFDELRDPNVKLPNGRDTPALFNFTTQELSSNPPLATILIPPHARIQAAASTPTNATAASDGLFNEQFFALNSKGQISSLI
Assay [3] deals with T2, MAP Kinase ERK-2 (Rattus norvegicus, UniProt P63086).
T2 construct: polyhistidine (N); purchased BIOMOL SE-137; host or cells: E. coli
T2 sequence (P63086 whole entry): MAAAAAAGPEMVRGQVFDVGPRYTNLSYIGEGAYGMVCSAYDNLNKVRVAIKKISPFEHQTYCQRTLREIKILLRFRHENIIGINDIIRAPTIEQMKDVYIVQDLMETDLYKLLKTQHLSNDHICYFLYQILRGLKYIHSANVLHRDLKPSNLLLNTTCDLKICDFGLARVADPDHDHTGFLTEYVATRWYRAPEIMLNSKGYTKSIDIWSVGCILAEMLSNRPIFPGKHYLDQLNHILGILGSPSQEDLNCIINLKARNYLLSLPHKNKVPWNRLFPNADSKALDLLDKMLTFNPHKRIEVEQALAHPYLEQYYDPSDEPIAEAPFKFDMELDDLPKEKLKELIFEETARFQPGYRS
Briefly: Kinase selectivity assay MAP Kinase ERK-2. The format is biochemical. The method, then:
as §1

Assay [4] relates to HCT-116 colon carcinoma. Briefly: Inhibition of cell proliferation, 14C-thymidine incorporation, HCT-116. The class given is cell-based. The following applies: Homo sapiens. The protocol:
The ability of a test compound to inhibit the proliferation of cell growth was determined by measuring incorporation of ^14C-labelled thymidine into newly synthesized DNA within the cells. This method was used on cell lines derived from carcinomas originating from several tissues such as HeLa cervical adenocarcinoma (American Type Culture Collection (ATCC), Virginia, Cat. #CCL-2), HCT-116 colon carcinoma (CCL-247), MDA-MB-231 (Xenogen Corp.), PC-3 prostate adenocarcinoma (ATCC CRL-1435) and A375 malignant melanoma (ATCC CRL-1619).
Using this method, the effect of a compound on cell growth of cells with many different phenotypes can be determined. Cells were trypsinized and counted and 3000–8000 cells were added to each well of a 96-well CytoStar tissue culture treated scintillating microplate (Amersham #RPNQ0160) in complete medium in a volume of 100 μl. Cells were incubated for 24 hours in complete medium at 37° C. in an atmosphere containing 5% CO2. 1 μL of test compound in 100% DMSO was then added to the wells of the plate. DMSO only was added to control wells. Cells were incubated for 24 more hours in complete medium at 37° C. in an atmosphere containing 5% CO2. […] The degree of methyl ^14C-thymidine incorporation was quantified on a Packard Top Count.
On the technique in general: Dividing cells build labelled thymidine or BrdU into new DNA.

T1 sequence (P68400 whole entry): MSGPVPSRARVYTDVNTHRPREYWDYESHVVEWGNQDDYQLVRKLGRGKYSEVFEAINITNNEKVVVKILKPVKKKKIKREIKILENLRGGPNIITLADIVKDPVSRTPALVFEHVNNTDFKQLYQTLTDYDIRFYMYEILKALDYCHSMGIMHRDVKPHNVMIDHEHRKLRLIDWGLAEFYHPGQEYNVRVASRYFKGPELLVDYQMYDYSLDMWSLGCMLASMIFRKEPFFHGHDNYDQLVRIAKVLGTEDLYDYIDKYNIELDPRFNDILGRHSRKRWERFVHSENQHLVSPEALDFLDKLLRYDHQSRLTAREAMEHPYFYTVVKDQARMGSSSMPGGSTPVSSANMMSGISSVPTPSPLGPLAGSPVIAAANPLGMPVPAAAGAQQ
T1 sequence (P67870 whole entry partner): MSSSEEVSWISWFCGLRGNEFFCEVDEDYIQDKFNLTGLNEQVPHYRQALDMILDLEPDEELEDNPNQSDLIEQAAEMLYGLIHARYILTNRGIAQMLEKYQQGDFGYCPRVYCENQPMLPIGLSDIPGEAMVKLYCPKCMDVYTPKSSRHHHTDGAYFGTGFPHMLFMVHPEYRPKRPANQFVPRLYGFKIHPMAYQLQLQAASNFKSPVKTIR

With `OCCCNc1cncc(-c2ncnc(Nc3cccc(Cl)c3)n2)c1` [Compound 1, 3-((5-(4-((3-chlorophenyl)amino)-1,3,5-triazin-2-yl)-3-pyridinyl)amino)-1-propanol], the half-inhibitory concentration (IC50) (in general, the concentration at which inhibition is half-maximal) in assay [1] is 926 nM; in assay [2], 5 nM; in assay [3], greater than 100000 nM; in assay [4], 278 nM.
Turning to `OCCCNc1cc(-c2ncnc(Nc3cccc(Cl)c3)n2)ccn1` [Compound 2, 3-((4-(4-((3-chlorophenyl)amino)-1,3,5-triazin-2-yl)-2-pyridinyl)amino)-1-propanol], the concentration for half-maximal inhibition (IC50) was greater than 100000 nM in assay [1], 17 nM in assay [2], greater than 10000 nM in assay [3] and 48 nM in assay [4].
